The structures appear in SMILES notation.

In this assay the target is T1, Recombinant human HSP90α (Homo sapiens, UniProt P07900).
T1 construct: host or cells: E. coli
As to the kind of experiment: HSP90 radioligand filter binding test ([3H]17AAG competition). As to conditions: [3H]17AAG 0.08 μM, HSP90 1.5 μg/assay, 22° C., 30 min; read-out: IC50* (HSP90 inhibition). The protocol:
Test Method for the Measurement of HSP90 Inhibitors
In the specific case, a radioligand filter binding test is used. The radioligand used here is tritium-labelled 17-allylaminogeldanamycin, [3H]17AAG. This filter binding test allows a targeted search for inhibitors which interfere with the ATP binding site.
Recombinant human HSP90α (E. coli expressed, 95% purity);
HEPES filter buffer (50 mM HEPES, pH 7.0, 5 mM MgCl2, BSA 0.01%)
Multiscreen F B (1 μm) filter plate (Millipore, MAFBNOB 50).
The 96-well microtitre filter plates are firstly irrigated and coated with 0.1% of polyethylenimine.
The test is carried out under the following conditions:
Reaction temperature 22° C.
Reaction time: 30 min., shaking at 800 rpm
50 mM HEPES HCl, pH 7.0, 5 mM MgCl2, 0.01% (w/v) BSA
At the end of the reaction, the supernatant in the filter plate is removed by suction with the aid of a vacuum manifold (Multiscreen Separation System, Millipore), and the filter is washed twice.
The filter plates are then measured in a beta counter (Microbeta, Wallac) with scintillator (Microscint 20, Packard).
“% of control” is determined from the “counts per minutes” values and the IC50 value of a compound is calculated therefrom.
By IC50 is commonly meant the concentration that inhibits the measured activity by half. Turning to `COc1cccc(CN(C)C(=O)c2cc(-c3nnc(O)n3-c3ccccc3C)c(O)cc2O)c1` [Compound A6a, 5-{2,4-Dihydroxy-5-[N-(3-methoxybenzyl)-N-methylaminocarbonyl]phenyl}-4-(2-methylphenyl)-3-hydroxy-4H-1,2,4-triazole], the IC50 fell in the range of 10 to 1000 nM. As for `Cc1ccccc1-n1c(O)nnc1-c1cc(C(=O)N(C)Cc2ccccc2F)c(O)cc1O` [Compound A9, 5-{2,4-Dihydroxy-5-[N-(2-fluorobenzyl)-N-methylaminocarbonyl]phenyl}-4-(2-methylphenyl)-3-hydroxy-4H-1,2,4-triazole], the IC50 was in the range of 10 to 1000 nM.

In the case of `Cc1ccccc1-n1c(O)nnc1-c1cc(C(=O)N(C)Cc2ccc(F)cc2)c(O)cc1O` [Compound A12, 5-{2,4-Dihydroxy-5-[N-(4-fluorobenzyl)-N-methylaminocarbonyl]phenyl}-4-(2-methylphenyl)-3-hydroxy-4H-1,2,4-triazole], the IC50 was in the range of 10 to 1000 nM.

`Cc1ccccc1-n1c(O)nnc1-c1cc(C(=O)N(C)Cc2cccc(F)c2)c(O)cc1O` [Compound A15, 5-{2,4-Dihydroxy-5-[N-(3-fluorobenzyl)-N-methylaminocarbonyl]phenyl}-4-(2-methylphenyl)-3-hydroxy-4H-1,2,4-triazole]: the IC50 lay within 10 to 1000 nM. The result for `Cc1ccccc1-n1c(O)nnc1-c1cc(C(=O)N(C)Cc2cccc(Cl)c2)c(O)cc1O` [Compound A24, 5-{2,4-Dihydroxy-5-[N-(3-chlorobenzyl)-N-methylaminocarbonyl]phenyl}-4-(2-methylphenyl)-3-hydroxy-4H-1,2,4-triazole] reads 10 to 1000 nM; that for `Cc1ccccc1-n1c(O)nnc1-c1cc(C(=O)N(C)Cc2ccccc2Cl)c(O)cc1O` [Compound A27, 5-{2,4-Dihydroxy-5-[N-(2-chlorobenzyl)-N-methylaminocarbonyl]phenyl}-4-(2-methylphenyl)-3-hydroxy-4H-1,2,4-triazole], 10 to 1000 nM; that for `COc1ccc(Cl)cc1CN(C)C(=O)c1cc(-c2nnc(O)n2-c2ccccc2C)c(O)cc1O` [Compound A51, 5-{2,4-Dihydroxy-5-[N-(3-chloro-6-methoxybenzyl)-N-methylaminocarbonyl]phenyl}-4-(2-methylphenyl)-3-hydroxy-4H-1,2,4-triazole], 10 to 1000 nM.

For the molecule `Cc1ccccc1-n1c(O)nnc1-c1cc(C(=O)N(C)Cc2ccco2)c(O)cc1O` [Compound A57, 5-{2,4-Dihydroxy-5-[N-(furan-2-ylmethyl)-N-methylaminocarbonyl]phenyl}-4-(2-methylphenyl)-3-hydroxy-4H-1,2,4-triazole], the IC50 lay within 10 to 1000 nM. Regarding `CN(Cc1ccco1)C(=O)c1cc(-c2nnc(O)n2-c2ccccc2)c(O)cc1O` [Compound A57a, 5-{2,4-Dihydroxy-5-[N-(furan-2-ylmethyl)-N-methylaminocarbonyl]phenyl}-4-phenyl-3-hydroxy-4H-1,2,4-triazole], the IC50 fell in the range of 10 to 1000 nM.

With `Cc1cccc(-n2c(O)nnc2-c2cc(C(=O)N(C)Cc3ccco3)c(O)cc2O)c1` [Compound A57b, 5-{2,4-Dihydroxy-5-[N-(furan-2-ylmethyl)-N-methylaminocarbonyl]phenyl}-4-(3-methylphenyl)-3-hydroxy-4H-1,2,4-triazole], the IC50 lay in the range of 10 to 1000 nM. The result for `CN(Cc1ccco1)C(=O)c1cc(-c2nnc(O)n2-c2ccccc2Cl)c(O)cc1O` [Compound A58, 5-{2,4-Dihydroxy-5-[N-(furan-2-ylmethyl)-N-methylaminocarbonyl]phenyl}-4-(2-chlorophenyl)-3-hydroxy-4H-1,2,4-triazole] reads 10 to 1000 nM.

Take `CN(Cc1ccco1)C(=O)c1cc(-c2nnc(O)n2-c2cccc(Cl)c2)c(O)cc1O` [Compound A58a, 5-{2,4-Dihydroxy-5-[N-(furan-2-ylmethyl)-N-methylaminocarbonyl]phenyl}-4-(3-chlorophenyl)-3-hydroxy-4H-1,2,4-triazole]: the IC50 is 10 to 1000 nM. For `CN(Cc1ccco1)C(=O)c1cc(-c2nnc(O)n2-c2cc(Cl)cc(Cl)c2)c(O)cc1O` [Compound A58b, 5-{2,4-Dihydroxy-5-[N-(furan-2-ylmethyl)-N-methylaminocarbonyl]phenyl}-4-(3,5-dichlorophenyl)-3-hydroxy-4H-1,2,4-triazole], the IC50 lay within 10 to 1000 nM. To `CN(Cc1ccco1)C(=O)c1cc(-c2nnc(O)n2-c2ccc(Cl)cc2)c(O)cc1O` [Compound A58c, 5-{2,4-Dihydroxy-5-[N-(furan-2-ylmethyl)-N-methylaminocarbonyl]phenyl}-4-(4-chlorophenyl)-3-hydroxy-4H-1,2,4-triazole] belongs 10 to 1000 nM; to `CN(Cc1ccco1)C(=O)c1cc(-c2nnc(O)n2-c2cccc(F)c2)c(O)cc1O` [Compound A59a, 5-{2,4-Dihydroxy-5-[N-(furan-2-ylmethyl)-N-methylaminocarbonyl]phenyl}-4-(3-fluorophenyl)-3-hydroxy-4H-1,2,4-triazole], 10 to 1000 nM; to `CCc1cccc(-n2c(O)nnc2-c2cc(C(=O)N(C)Cc3ccco3)c(O)cc2O)c1` [Compound A59b, 5-{2,4-Dihydroxy-5-[N-(furan-2-ylmethyl)-N-methylaminocarbonyl]phenyl}-4-(3-ethylphenyl)-3-hydroxy-4H-1,2,4-triazole], 10 to 1000 nM. The result for `COc1cccc(-n2c(O)nnc2-c2cc(C(=O)N(C)Cc3ccco3)c(O)cc2O)c1` [Compound A62b, 5-{2,4-Dihydroxy-5-[N-(furan-2-ylmethyl)-N-methylaminocarbonyl]phenyl}-4-(3-methoxyphenyl)-3-hydroxy-4H-1,2,4-triazole] reads 10 to 1000 nM; that for `CCc1ccccc1-n1c(O)nnc1-c1cc(C(=O)N(C)Cc2ccco2)c(O)cc1O` [Compound A62c, 5-{2,4-Dihydroxy-5-[N-(furan-2-ylmethyl)-N-methylaminocarbonyl]phenyl}-4-(2-ethylphenyl)-3-hydroxy-4H-1,2,4-triazole], 10 to 1000 nM. Consider `COc1cc(O)c(-c2nnc(O)n2-c2ccccc2C)cc1C(=O)N(C)Cc1ccccc1` [Compound A116a, 5-[2-Hydroxy-4-methoxy-5-(N-benzyl-N-methylaminocarbonyl)phenyl]-4-(2-methylphenyl)-3-hydroxy-4H-1,2,4-triazole], for which the IC50 lay in the range of 10 to 1000 nM. To `Cc1ccccc1-n1c(-c2cc(C(=O)N(C)Cc3cccc(OCCN4CCOCC4)c3)c(O)cc2O)n[nH]c1=O` [Compound A116c, 2,4-Dihydroxy-N-methyl-N-[3-(2-morpholin-4-ylethoxy)benzyl]-5-(5-oxo-4-o-tolyl-4,5-dihydro-1H-1,2,4-triazol-3-yl)benzamide] belongs 1000 to 10000 nM.

The values are drawn from patent publication US8119795B2, “Triazole derivatives II” (Merck Patent GmbH, priority 2006, dated 2012).
